From ChEMBL document CHEMBL4145553, “Design, synthesis, and biological evaluation of novel amide and hydrazide based thioether analogs targeting Histone deacteylase (HDAC) enzymes” (Eur J Med Chem, 2018)
Activity calls are given as the source filed them. No cut-off for these calls is given here.

Key:
UACC-257 = experiment: Growth inhibition of human UACC257 cells assessed as cell growth at 10^-8 M incubated for 48 hrs by sulforhodamine B assay relative to control; type: functional; conditions: UACC-257, 48 h, read-out: Activity
SK-MEL-2 = experiment: Growth inhibition of human SK-MEL-2 cells assessed as cell growth at 10^-7 M incubated for 48 hrs by sulforhodamine B assay relative to control; type: functional; conditions: SK-MEL-2, 48 h, read-out: Activity
CAKI-1 = experiment: Growth inhibition of human Caki1 cells incubated for 48 hrs by sulforhodamine B assay; type: functional; conditions: CAKI-1, 48 h
SK-MEL-28 = experiment: Growth inhibition of human SK-MEL-28 cells assessed as cell growth at 10^-8 M incubated for 48 hrs by sulforhodamine B assay relative to control; type: functional; conditions: SK-MEL-28, 48 h, read-out: Activity
HL-60 [1] = experiment: Induction of apoptosis in human HL60 cells assessed as early apoptotic cells by propidium iodide/Annexin V staining based flow cytometry (reference value: 0.37%); type: functional
M14 = experiment: Growth inhibition of human M14 cells assessed as cell growth at 10^-6 M incubated for 48 hrs by sulforhodamine B assay relative to control; type: functional; conditions: M14, 48 h, read-out: Activity
U-251 = experiment: Growth inhibition of human U251 cells incubated for 48 hrs by sulforhodamine B assay; type: functional; conditions: U-251, 48 h
LOX IMVI [2] = experiment: Growth inhibition of human LOXIMVI cells assessed as cell growth at 10^-6 M incubated for 48 hrs by sulforhodamine B assay relative to control; type: functional; conditions: read-out: Activity
HL-60 [3] = experiment: Induction of apoptosis in human HL60 cells assessed as increase in caspase-3 expression by qRT-PCR method; type: functional, cell-based
OVCAR-3 = experiment: Growth inhibition of human OVCAR3 cells assessed as cell growth at 10^-5 M incubated for 48 hrs by sulforhodamine B assay relative to control; type: functional; conditions: OVCAR-3, 48 h, read-out: Activity
HL-60 [4] = experiment: Cell cycle arrest in human HL60 cells assessed as accumulation at G2-phase by propidium iodide staining based flow cytometry (reference value: 6.58%); type: functional
HT-29 [5] = experiment: Growth inhibition of human HT-29 cells incubated for 48 hrs by sulforhodamine B assay; type: functional; conditions: HT-29, 48 h
OVCAR-8 [6] = experiment: Growth inhibition of human OVCAR8 cells assessed as cell growth at 10^-5 M incubated for 48 hrs by sulforhodamine B assay relative to control; type: functional; conditions: OVCAR-8, 48 h, read-out: Activity
NCI-H460 = experiment: Growth inhibition of human NCI-H460 cells incubated for 48 hrs by sulforhodamine B assay; type: functional; conditions: NCI-H460, 48 h
HL-60 [7] = experiment: Downregulation of HDAC3 mRNA expression in human HL60 cells by qRT-PCR method; type: functional, cell-based
K562 = experiment: Growth inhibition of human K562 cells assessed as cell growth at 10^-6 M incubated for 48 hrs by sulforhodamine B assay relative to control; type: functional; conditions: K562, 48 h, read-out: Activity
OVCAR-8 [8] = experiment: Growth inhibition of human OVCAR8 cells assessed as cell growth at 10^-7 M incubated for 48 hrs by sulforhodamine B assay relative to control; type: functional; conditions: OVCAR-8, 48 h, read-out: Activity
OVCAR-8 [9] = experiment: Growth inhibition of human OVCAR8 cells assessed as cell growth at 10^-6 M incubated for 48 hrs by sulforhodamine B assay relative to control; type: functional; conditions: OVCAR-8, 48 h, read-out: Activity
OVCAR-5 = experiment: Growth inhibition of human OVCAR5 cells assessed as cell growth at 10^-8 M incubated for 48 hrs by sulforhodamine B assay relative to control; type: functional; conditions: OVCAR-5, 48 h, read-out: Activity
HT-29 [10] = experiment: Growth inhibition of human HT-29 cells assessed as cell growth at 10^-6 M incubated for 48 hrs by sulforhodamine B assay relative to control; type: functional; conditions: HT-29, 48 h, read-out: Activity
LOX IMVI [11] = experiment: Growth inhibition of human LOXIMVI cells assessed as cell growth at 10^-7 M incubated for 48 hrs by sulforhodamine B assay relative to control; type: functional; conditions: read-out: Activity
HCT-15 = experiment: Growth inhibition of human HCT15 cells incubated for 48 hrs by sulforhodamine B assay; type: functional; conditions: HCT-15, 48 h
HCC 2998 = experiment: Growth inhibition of human HCC2998 cells assessed as cell growth at 10^-6 M incubated for 48 hrs by sulforhodamine B assay relative to control; type: functional; conditions: HCC 2998, 48 h, read-out: Activity
SF-268 = experiment: Growth inhibition of human SF268 cells incubated for 48 hrs by sulforhodamine B assay; type: functional; conditions: SF-268, 48 h
SW-620 = experiment: Growth inhibition of human SW620 cells assessed as cell growth at 10^-6 M incubated for 48 hrs by sulforhodamine B assay relative to control; type: functional; conditions: SW-620, 48 h, read-out: Activity
A549 = experiment: Growth inhibition of human A549/ATCC cells incubated for 48 hrs by sulforhodamine B assay; type: functional; conditions: A549, 48 h
LOX IMVI [12] = experiment: Growth inhibition of human LOXIMVI cells assessed as cell growth at 10^-8 M incubated for 48 hrs by sulforhodamine B assay relative to control; type: functional; conditions: read-out: Activity
MDA-MB-435 [13] = experiment: Induction of apoptosis in human MDA-MB-435 cells assessed as increase in gammaH2ax expression by qRT-PCR method; type: functional, cell-based
MDA-MB-435 [14] = experiment: Downregulation of HDAC8 mRNA expression in human MDA-MB-435 cells by qRT-PCR method; type: functional, cell-based
786-0 = experiment: Growth inhibition of human 786-0 cells assessed as cell growth at 10^-4 M incubated for 48 hrs by sulforhodamine B assay relative to control; type: functional; conditions: 786-0, 48 h, read-out: Activity
[15] = read-out: LC50 (the source's name)
[16] = read-out: pLC50 (the source's name) (converted)

CCS/C(Nc1ccccc1)=C(\C#N)C(=O)N/N=C\c1ccc(Cl)cc1Cl
growth at 0.01 µM (UACC-257): 94% | growth at 0.1 µM (SK-MEL-2): 101% | GI50 (CAKI-1; read-out: GI50): 2.39 µM | CC50 (CAKI-1; [15]): > 100 µM | TGI (CAKI-1; read-out: TGI): > 100 µM | GI50 (CAKI-1; read-out: pGI50 (converted)): 2.4 µM | CC50 (CAKI-1; [16]): > 100 µM | TGI (CAKI-1; read-out: pTGI): > 100 µM | growth at 0.01 µM (SK-MEL-28): 104% | Activity (HL-60 [1]): 7.69% | growth at 1 µM (M14): 72% | GI50 (U-251; read-out: GI50): 3.95 µM | CC50 (U-251; [15]): > 100 µM | TGI (U-251; read-out: TGI): > 100 µM | GI50 (U-251; read-out: pGI50 (converted)): 3.98 µM | CC50 (U-251; [16]): > 100 µM | TGI (U-251; read-out: pTGI): > 100 µM | growth at 1 µM (LOX IMVI [2]): 86% | Activity (HL-60 [3]): Active | growth at 10 µM (OVCAR-3): 1% | Activity (HL-60 [4]): 22.18% | GI50 (HT-29 [5]; read-out: GI50): 3.7 µM | CC50 (HT-29 [5]; [15]): > 100 µM | TGI (HT-29 [5]; read-out: TGI): > 100 µM | GI50 (HT-29 [5]; read-out: pGI50 (converted)): 3.72 µM | CC50 (HT-29 [5]; [16]): > 100 µM | TGI (HT-29 [5]; read-out: pTGI (converted)): > 100 µM | growth at 10 µM (OVCAR-8 [6]): 27% | GI50 (NCI-H460; read-out: GI50): 3.16 µM | LC50 (NCI-H460; read-out: LC50): > 100 µM | TGI (NCI-H460; read-out: TGI): > 100 µM | GI50 (NCI-H460; read-out: pGI50 (converted)): 3.16 µM | LC50 (NCI-H460; read-out: pLC50 (converted)): > 100 µM | TGI (NCI-H460; read-out: pTGI (converted)): > 100 µM | Activity (HL-60 [7]): Active | growth at 1 µM (K562): 47% | growth at 0.1 µM (OVCAR-8 [8]): 96% | growth at 1 µM (OVCAR-8 [9]): 99% | growth at 0.01 µM (OVCAR-5): 105% | growth at 1 µM (HT-29 [10]): 101% | growth at 0.1 µM (LOX IMVI [11]): 96% | GI50 (HCT-15; read-out: GI50): 2.9 µM | CC50 (HCT-15; [15]): > 100 µM | TGI (HCT-15; read-out: TGI): > 100 µM | GI50 (HCT-15; read-out: pGI50 (converted)): 2.88 µM | CC50 (HCT-15; [16]): > 100 µM | TGI (HCT-15; read-out: pTGI): > 100 µM | growth at 1 µM (HCC 2998): 99% | GI50 (SF-268; read-out: GI50): 6.58 µM | CC50 (SF-268; [15]): > 100 µM | TGI (SF-268; read-out: TGI): > 100 µM | GI50 (SF-268; read-out: pGI50 (converted)): 6.61 µM | CC50 (SF-268; [16]): > 100 µM | TGI (SF-268; read-out: pTGI): > 100 µM | growth at 1 µM (SW-620): 88% | GI50 (A549; read-out: GI50): 4.63 µM | CC50 (A549; [15]): > 100 µM | TGI (A549; read-out: TGI): > 100 µM | GI50 (A549; read-out: pGI50 (converted)): 4.68 µM | CC50 (A549; [16]): > 100 µM | TGI (A549; read-out: pTGI): > 100 µM | growth at 0.01 µM (LOX IMVI [12]): 95% | Activity (MDA-MB-435 [13]): Active | Activity (MDA-MB-435 [14]): Active | growth at 100 µM (786-0): 7%
